# In BindingDB's records for doi:10.1016/s0960-894x(01)00185-8 (Dupont Pharmaceuticals, 2001):
# What was measured:
# [1] = target: Cyclin-dependent kinase 4/G1/S-specific cyclin-D1 (Homo sapiens, UniProt P11802); assay: Kinase Inhibition Assay
# Experimental: (§1) The enzyme was assayed with substrate GST-Rb in the presence of 50 mM ATP/[gamma-32P] ATP, and capturing the 32-P labeled reaction products on GSH-Sepharose beads. […] Use of 32P-labeled ATP allows this transfer to be monitored by scintillation counting.
# [2] = target: Cyclin-dependent kinase 2/G1/S-specific cyclin-E1 (Homo sapiens, UniProt P24941); assay: Kinase Inhibition Assay
# Experimental: as §1
# Chain of Cyclin-dependent kinase 4/G1/S-specific cyclin-D1 (P11802 whole entry): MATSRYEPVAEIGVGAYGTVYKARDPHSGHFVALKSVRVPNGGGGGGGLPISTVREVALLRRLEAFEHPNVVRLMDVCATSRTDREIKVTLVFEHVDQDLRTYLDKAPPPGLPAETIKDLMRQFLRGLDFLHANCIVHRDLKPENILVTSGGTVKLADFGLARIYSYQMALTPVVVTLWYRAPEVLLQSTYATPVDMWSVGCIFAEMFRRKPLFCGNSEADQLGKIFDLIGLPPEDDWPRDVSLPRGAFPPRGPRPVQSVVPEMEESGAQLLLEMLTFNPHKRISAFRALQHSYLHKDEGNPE
# Chain of Cyclin-dependent kinase 4/G1/S-specific cyclin-D1 (P24385 whole entry, further chain): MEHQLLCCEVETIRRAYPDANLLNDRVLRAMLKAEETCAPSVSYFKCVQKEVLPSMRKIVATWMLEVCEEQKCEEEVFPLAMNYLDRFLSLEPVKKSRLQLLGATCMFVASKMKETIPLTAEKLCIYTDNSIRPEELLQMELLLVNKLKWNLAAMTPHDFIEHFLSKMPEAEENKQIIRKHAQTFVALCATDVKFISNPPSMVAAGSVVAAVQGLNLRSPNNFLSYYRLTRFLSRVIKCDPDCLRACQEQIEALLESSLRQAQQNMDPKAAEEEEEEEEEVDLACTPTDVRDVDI
smiles,measurement,setting,value
CC(C)(C)Nc1nc(C(F)(F)F)nc2ccc(-c3cccc(-c4cccnc4)c3)cc12 [N-tert-butyl-6-[3-(pyridin-3-yl)phenyl]-2-(trifluoromethyl)quinazolin-4-amine],IC50,[1],8.3 µM
same,IC50,[2],1200 nM
